Results: patent US11214594B2, “Antimicrobial peptide having synergistic antibacterial effect with antibiotics on multidrug resistant bacteria, and use thereof” (priority 2016, dated 2022)
Converted amounts (≈) assume the structure as drawn. Where two headings read alike, the source gives them in different places. Where a SMILES comes first, the peptide text is derived from it. [ ]: non-standard residue; d: D form.

Columns and labels:
[1] = tested on: P. aeruginosa; experiment: microbe, parasite or virus in culture; assay type: cell-based, Pseudomonas aeruginosa
Summary of the method: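 Broth microdilution in MH medium: bacterial strains diluted to 2×10^6 CFU were mixed with equal volumes of peptide serially diluted twofold in MH medium.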

[2] = tested on: A. baumannii; experiment: MIC of antibiotic during combined treatment with antimicrobial peptide; assay type: cell-based, Acinetobacter baumannii; details: for Antibiotic MIC, Erythromycin / Antibiotic MIC, Linezolid / Antibiotic MIC, Vancomycin: A. baumannii
Summary of the method: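 MIC values for mixed peptide plus antibiotic solutions were measured in MH medium.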

[3] = tested on: A. baumannii; experiment: MIC of antimicrobial peptide during combined treatment with antibiotic; assay type: cell-based, Acinetobacter baumannii
Summary of the method: (§1)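 Antibiotic MIC came from antibiotic dilutions added to bacteria (2×10^6 CFU/ml, MH medium) already combined with peptide serially diluted 2:1 from its own MIC. Swapping the roles of the two agents gave the peptide MIC.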

[4] = tested on: MDRAB 12035; experiment: as above; assay type: cell-based, Acinetobacter baumannii
Summary of the method: as §1

[5] = tested on: MDREC 1229; assay type: cell-based, Escherichia coli
Summary of the method: as §1

[6] = combined with peptide at 1 μg/ml
[7] = combined with peptide at 2 μg/ml
[8] = combined with peptide at 4 μg/ml
[9] = combined with peptide at 6 μg/ml
[10] = combined with peptide at 8 μg/ml
[11] = combined with peptide at 16 μg/ml
[12] = combined with peptide at 32 μg/ml
[13] = combined with peptide at 64 μg/ml
[14] = erythromycin 4 μg/ml (Conc./MIC 1/8)
[15] = erythromycin 8 μg/ml (Conc./MIC 1/4)
[16] = erythromycin 16 μg/ml (Conc./MIC 1/2)
[17] = erythromycin 32 μg/ml (Conc./MIC 1)
[18] = vancomycin 512 μg/ml (Conc./MIC 1/2)
[19] = vancomycin 1024 μg/ml (Conc./MIC 1)
[20] = linezolid 64 μg/ml (Conc./MIC 1/8)
[21] = linezolid 512 μg/ml (Conc./MIC 1)

Question: `CC[C@H](C)[C@H](NC(=O)[C@H](CCCCN)NC(=O)[C@H](Cc1c[nH]c2ccccc12)NC(=O)[C@@H](N)CCCNC(=N)N)C(=O)N[C@@H](Cc1ccccc1)C(=O)N[C@@H](CCCCN)C(=O)N[C@@H](CCCCN)C(=O)N[C@H](C(=O)N[C@H](CC(C)C)C(=O)N[C@@H](CCCCN)C(=O)N[C@@H](CC(C)C)C(=O)N[C@@H](CC(C)C)C(=O)N[C@@H](Cc1c[nH]cn1)C(=O)N[C@@H](CCCCN)C(=O)N[C@@H](C)C(=O)N[C@@H](CCCCN)C(=O)N[C@@H](CCCCN)C(=O)N[C@@H](Cc1c[nH]c2ccccc12)C(N)=O)[C@@H](C)CC` [PapMA-22, RWK IFK KIl KLL HKA KKW-NH2] (H-RWKIFKKI[dL]KLLHKAKKW-NH2; N-terminus assumed) was tested. Which “Minimal inhibitory concentration MIC” value [1] did it give?
Answer: 16 µg/mL (≈ 6.77 µM)

Question: And the “Synergistic effect of antibacterial activity with existing antibiotics compared with PapMA-1” value ([2]; A. baumannii and MDRAB 12035)?
Answer: level similar to that of PapMA-1 peptide

Question: What about the “Antibiotic MIC, Erythromycin” value [2, 6] of the same compound?
Answer: 32 µg/mL

Question: What about the “Antibiotic MIC, Linezolid” value [2, 6] of the same compound?
Answer: >128 µg/mL

Question: And the “Antibiotic MIC, Vancomycin” value [2, 6]?
Answer: >128 µg/mL

Question: What about the “Antibiotic MIC, Erythromycin” value [2, 7] of the same compound?
Answer: 32 µg/mL

Question: And the “Antibiotic MIC, Linezolid” value [2, 7]?
Answer: >128 µg/mL

Question: What about the “Antibiotic MIC, Vancomycin” value [2, 7] of the same compound?
Answer: 128 µg/mL

Question: And the “Antibiotic MIC, Erythromycin” value [2, 8]?
Answer: 8 µg/mL

Question: And the “Antibiotic MIC, Linezolid” value [2, 8]?
Answer: 32 µg/mL

Question: What about the “Antibiotic MIC, Vancomycin” value [2, 8] of the same compound?
Answer: 64 µg/mL

Question: What about the “Antibiotic MIC, Erythromycin” value [2, 9] of the same compound?
Answer: 2 µg/mL

Question: And the “Antibiotic MIC, Linezolid” value [2, 9]?
Answer: 16 µg/mL

Question: What about the “Antibiotic MIC, Vancomycin” value [2, 9] of the same compound?
Answer: 32 µg/mL

Question: And the “Antibiotic MIC, Erythromycin” value [2, 10]?
Answer: 1 µg/mL

Question: What about the “Antibiotic MIC, Linezolid” value [2, 10] of the same compound?
Answer: 8 µg/mL

Question: And the “Antibiotic MIC, Vancomycin” value [2, 10]?
Answer: 8 µg/mL

Question: And the “Antibiotic MIC, Erythromycin” value [2, 11]?
Answer: 0 µg/mL

Question: What about the “Antibiotic MIC, Linezolid” value [2, 11] of the same compound?
Answer: 0 µg/mL

Question: What about the “Antibiotic MIC, Vancomycin” value [2, 11] of the same compound?
Answer: 0 µg/mL

Question: And the “Antibiotic MIC, Erythromycin” value [2, 12]?
Answer: 0 µg/mL

Question: And the “Antibiotic MIC, Linezolid” value [2, 12]?
Answer: 0 µg/mL

Question: What about the “Antibiotic MIC, Vancomycin” value [2, 12] of the same compound?
Answer: 0 µg/mL

Question: And the “Antibiotic MIC, Erythromycin” value [2, 13]?
Answer: 0 µg/mL

Question: And the “Antibiotic MIC, Linezolid” value [2, 13]?
Answer: 0 µg/mL

Question: What about the “Antibiotic MIC, Vancomycin” value [2, 13] of the same compound?
Answer: 0 µg/mL

Question: And the “Peptide MIC during treatment with erythromycin” value [3, 14]?
Answer: 8 µg/mL

Question: What about the “Peptide MIC during treatment with erythromycin” value [3, 15] of the same compound?
Answer: 4 µg/mL

Question: What about the “Peptide MIC during treatment with erythromycin” value [3, 16] of the same compound?
Answer: 4 µg/mL

Question: And the “Peptide MIC during treatment with erythromycin” value [3, 17]?
Answer: 0 µg/mL

Question: What about the “Peptide MIC during treatment with linezolid” value ([3]; linezolid 32 μg/ml (Conc./MIC 1/8)) of the same compound?
Answer: 4 µg/mL

Question: And the “Peptide MIC during treatment with linezolid” value ([3]; linezolid 64 μg/ml (Conc./MIC 1/4))?
Answer: 4 µg/mL

Question: And the “Peptide MIC during treatment with linezolid” value ([3]; linezolid […] (Conc./MIC 1))?
Answer: 0 µg/mL

Question: What about the “Peptide MIC during treatment with linezolid” value ([3]; linezolid […] (Conc./MIC 1/2)) of the same compound?
Answer: 1 µg/mL

Question: What about the “Peptide MIC during treatment with vancomycin” value [3, 18] of the same compound?
Answer: 0.25 µg/mL

Question: What about the “Peptide MIC during treatment with vancomycin” value [3, 19] of the same compound?
Answer: 0 µg/mL

Question: And the “Peptide MIC during treatment with vancomycin” value ([3]; vancomycin […] (Conc./MIC 1/4))?
Answer: 0.5 µg/mL

Question: What about the “Peptide MIC during treatment with vancomycin” value ([3]; vancomycin […] (Conc./MIC 1/8)) of the same compound?
Answer: 2 µg/mL

Question: What about the “Peptide MIC during treatment with erythromycin” value [4, 14] of the same compound?
Answer: 8 µg/mL

Question: And the “Peptide MIC during treatment with erythromycin” value [4, 15]?
Answer: 8 µg/mL

Question: What about the “Peptide MIC during treatment with erythromycin” value [4, 16] of the same compound?
Answer: 4 µg/mL

Question: And the “Peptide MIC during treatment with erythromycin” value [4, 17]?
Answer: 0 µg/mL

Question: And the “Peptide MIC during treatment with linezolid” value [4, 20]?
Answer: 4 µg/mL

Question: What about the “Peptide MIC during treatment with linezolid” value [4, 21] of the same compound?
Answer: 0 µg/mL

Question: What about the “Peptide MIC during treatment with linezolid” value ([4]; linezolid […] (Conc./MIC 1/2)) of the same compound?
Answer: 1 µg/mL

Question: What about the “Peptide MIC during treatment with linezolid” value ([4]; linezolid […] (Conc./MIC 1/4)) of the same compound?
Answer: 4 µg/mL

Question: What about the “Peptide MIC during treatment with vancomycin” value [4, 18] of the same compound?
Answer: 4 µg/mL

Question: What about the “Peptide MIC during treatment with vancomycin” value [4, 19] of the same compound?
Answer: 1 µg/mL

Question: And the “Peptide MIC during treatment with vancomycin” value ([4]; vancomycin […] (Conc./MIC 1/4))?
Answer: 4 µg/mL

Question: And the “Peptide MIC during treatment with vancomycin” value ([4]; vancomycin […] (Conc./MIC 1/8))?
Answer: 4 µg/mL

Question: What about the “Peptide MIC during treatment with antibiotic” value ([5]; erythromycin 32 μg/ml (Conc./MIC 1/8)) of the same compound?
Answer: 2 µg/mL

Question: And the “Peptide MIC during treatment with antibiotic” value ([5]; erythromycin 64 μg/ml (Conc./MIC 1/4))?
Answer: 2 µg/mL

Question: And the “Peptide MIC during treatment with antibiotic” value ([5]; erythromycin […] (Conc./MIC 1))?
Answer: 0 µg/mL

Question: And the “Peptide MIC during treatment with antibiotic” value ([5]; erythromycin […] (Conc./MIC 1/2))?
Answer: 1 µg/mL

Question: What about the “Peptide MIC during treatment with antibiotic” value [5, 20] of the same compound?
Answer: 8 µg/mL

Question: And the “Peptide MIC during treatment with antibiotic” value [5, 21]?
Answer: 0 µg/mL

Question: What about the “Peptide MIC during treatment with antibiotic” value ([5]; linezolid […] (Conc./MIC 1/2)) of the same compound?
Answer: 1 µg/mL

Question: What about the “Peptide MIC during treatment with antibiotic” value ([5]; linezolid […] (Conc./MIC 1/4)) of the same compound?
Answer: 4 µg/mL

Question: What about the “Peptide MIC during treatment with antibiotic” value [5, 18] of the same compound?
Answer: 2 µg/mL

Question: What about the “Peptide MIC during treatment with antibiotic” value [5, 19] of the same compound?
Answer: 2 µg/mL
